Results: paper PMC9611727, “Optimization of a Novel Mandelamide-Derived Pyrrolopyrimidine Series of PERK Inhibitors” (Pharmaceutics, 2022)

Experiments:
Assay in all cases: scanMAX kinase panel
Format in all cases: binding
Conditions in all cases: read-out: % Control; for remaining binding at 1 µM: 1000 nM
KIT(V559D) = molecular target: T1, KIT(V559D) (Homo sapiens, UniProt P10721, V559D)
T1 construct: purchased DiscoverX scanMAX
Source text: (§1) Supplemental Table S2. scanMAXSM Kinome Assay Results. Complete tabulated data of all 468 kinases from the panel, including
(§2) 403 wild-type and 65 mutant isoforms. […] Cmpd 11 and Cmpd 24

YANK1 = molecular target: T2, YANK1 (Homo sapiens, UniProt Q8WU08)
T2 construct: purchased DiscoverX (scanMAX panel)
T2 sequence (Q8WU08 whole entry): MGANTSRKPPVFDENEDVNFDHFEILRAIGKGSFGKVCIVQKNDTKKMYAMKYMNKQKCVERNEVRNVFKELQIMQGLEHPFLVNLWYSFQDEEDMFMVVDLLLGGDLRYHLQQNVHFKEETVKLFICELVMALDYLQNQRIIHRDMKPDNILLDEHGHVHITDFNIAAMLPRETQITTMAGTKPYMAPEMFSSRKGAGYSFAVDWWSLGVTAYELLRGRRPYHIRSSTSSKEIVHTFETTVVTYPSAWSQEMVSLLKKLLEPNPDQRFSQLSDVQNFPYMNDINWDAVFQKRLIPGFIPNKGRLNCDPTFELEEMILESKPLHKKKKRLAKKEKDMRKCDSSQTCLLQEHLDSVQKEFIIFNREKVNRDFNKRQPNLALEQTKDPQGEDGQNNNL
Source text: as §1, §2

CDK8 = molecular target: T3, CDK8 (Homo sapiens, UniProt P49336)
T3 construct: purchased DiscoverX scanMAX
T3 sequence (P49336 whole entry): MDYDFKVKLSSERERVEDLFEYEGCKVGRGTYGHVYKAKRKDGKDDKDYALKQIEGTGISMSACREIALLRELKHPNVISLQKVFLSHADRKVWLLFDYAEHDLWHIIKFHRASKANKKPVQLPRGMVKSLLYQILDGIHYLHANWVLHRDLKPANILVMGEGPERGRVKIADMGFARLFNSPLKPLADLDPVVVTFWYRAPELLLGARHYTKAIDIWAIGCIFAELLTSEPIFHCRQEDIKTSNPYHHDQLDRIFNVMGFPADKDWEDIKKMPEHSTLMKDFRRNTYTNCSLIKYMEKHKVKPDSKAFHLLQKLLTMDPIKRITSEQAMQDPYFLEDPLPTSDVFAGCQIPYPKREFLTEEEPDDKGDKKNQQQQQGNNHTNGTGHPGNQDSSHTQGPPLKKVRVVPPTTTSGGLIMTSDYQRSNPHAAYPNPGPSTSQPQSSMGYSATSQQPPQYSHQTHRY
Source text: as §1, §2

RIPK2 = molecular target: T4, RIPK2 (Homo sapiens, UniProt O43353)
T4 construct: purchased DiscoverX (scanMAX panel)
T4 sequence (O43353 whole entry): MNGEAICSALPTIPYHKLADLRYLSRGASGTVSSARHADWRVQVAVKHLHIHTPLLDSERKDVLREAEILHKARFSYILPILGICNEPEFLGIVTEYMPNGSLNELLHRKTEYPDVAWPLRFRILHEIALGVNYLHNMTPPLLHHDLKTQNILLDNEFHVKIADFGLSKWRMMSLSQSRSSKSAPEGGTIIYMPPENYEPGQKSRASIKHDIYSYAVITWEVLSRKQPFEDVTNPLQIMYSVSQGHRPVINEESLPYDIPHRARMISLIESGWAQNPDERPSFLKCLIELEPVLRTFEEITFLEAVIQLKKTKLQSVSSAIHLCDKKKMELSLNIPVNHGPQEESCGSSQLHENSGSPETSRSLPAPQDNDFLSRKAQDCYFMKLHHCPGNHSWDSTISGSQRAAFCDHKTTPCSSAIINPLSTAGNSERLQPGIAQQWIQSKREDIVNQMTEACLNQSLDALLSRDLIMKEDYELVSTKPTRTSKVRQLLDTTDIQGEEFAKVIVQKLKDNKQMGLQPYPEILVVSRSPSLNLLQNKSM
Source text: as §1, §2

FLT3-autoinhibited = molecular target: T5, FLT3-autoinhibited (Homo sapiens, UniProt P36888)
T5 construct: purchased DiscoverX scanMAX
T5 sequence (P36888 564-993 limits assumed): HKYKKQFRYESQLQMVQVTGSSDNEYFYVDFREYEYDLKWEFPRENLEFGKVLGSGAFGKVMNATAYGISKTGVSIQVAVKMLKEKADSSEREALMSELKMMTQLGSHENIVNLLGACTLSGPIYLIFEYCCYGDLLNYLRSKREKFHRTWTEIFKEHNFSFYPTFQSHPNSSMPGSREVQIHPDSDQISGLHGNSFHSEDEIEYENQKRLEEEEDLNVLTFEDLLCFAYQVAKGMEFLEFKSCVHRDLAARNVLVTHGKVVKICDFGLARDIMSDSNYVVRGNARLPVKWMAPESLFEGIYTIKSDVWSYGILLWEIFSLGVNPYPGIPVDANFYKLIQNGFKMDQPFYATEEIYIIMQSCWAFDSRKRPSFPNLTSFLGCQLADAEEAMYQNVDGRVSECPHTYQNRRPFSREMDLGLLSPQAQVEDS
Source text: as §1, §2

MAP3K3 = molecular target: T6, MAP3K3 (Homo sapiens, UniProt Q99759)
T6 construct: purchased DiscoverX scanMAX
T6 sequence (Q99759 1-626): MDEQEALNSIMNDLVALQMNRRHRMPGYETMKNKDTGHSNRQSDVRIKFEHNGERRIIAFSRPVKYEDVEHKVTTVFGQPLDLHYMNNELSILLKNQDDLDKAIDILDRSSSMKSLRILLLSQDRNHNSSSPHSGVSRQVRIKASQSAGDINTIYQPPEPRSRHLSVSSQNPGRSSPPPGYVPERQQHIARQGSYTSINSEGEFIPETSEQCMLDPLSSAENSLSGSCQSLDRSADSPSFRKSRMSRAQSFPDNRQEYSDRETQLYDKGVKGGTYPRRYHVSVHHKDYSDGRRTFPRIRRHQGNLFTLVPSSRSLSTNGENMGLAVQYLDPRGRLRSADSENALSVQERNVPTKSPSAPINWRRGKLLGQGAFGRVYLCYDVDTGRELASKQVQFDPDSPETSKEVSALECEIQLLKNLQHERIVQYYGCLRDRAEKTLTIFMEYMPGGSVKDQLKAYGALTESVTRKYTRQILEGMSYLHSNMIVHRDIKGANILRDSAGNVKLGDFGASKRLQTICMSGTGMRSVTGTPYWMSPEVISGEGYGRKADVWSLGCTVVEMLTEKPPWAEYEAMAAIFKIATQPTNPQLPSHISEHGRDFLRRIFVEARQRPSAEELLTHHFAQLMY
Source text: as §1, §2

TYK2(JH2domain-pseudok.) = molecular target: T7, TYK2(JH2domain-pseudok.) (Homo sapiens, UniProt P29597)
T7 construct: TYK2(JH2domain-pseudok.); purchased DiscoverX (scanMAX panel)
T7 sequence (P29597 589-875 limits assumed): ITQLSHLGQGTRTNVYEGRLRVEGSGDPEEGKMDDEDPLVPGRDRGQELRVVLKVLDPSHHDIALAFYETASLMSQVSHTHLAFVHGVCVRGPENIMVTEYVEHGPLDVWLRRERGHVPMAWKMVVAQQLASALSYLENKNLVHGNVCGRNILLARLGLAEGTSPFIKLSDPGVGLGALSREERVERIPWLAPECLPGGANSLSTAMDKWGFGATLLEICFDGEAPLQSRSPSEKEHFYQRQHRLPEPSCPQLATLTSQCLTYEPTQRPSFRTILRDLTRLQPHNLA
Source text: as §1, §2

MEK5 = molecular target: T8, MEK5 (Homo sapiens, UniProt Q13163)
T8 construct: purchased DiscoverX scanMAX
T8 sequence (Q13163 1-448): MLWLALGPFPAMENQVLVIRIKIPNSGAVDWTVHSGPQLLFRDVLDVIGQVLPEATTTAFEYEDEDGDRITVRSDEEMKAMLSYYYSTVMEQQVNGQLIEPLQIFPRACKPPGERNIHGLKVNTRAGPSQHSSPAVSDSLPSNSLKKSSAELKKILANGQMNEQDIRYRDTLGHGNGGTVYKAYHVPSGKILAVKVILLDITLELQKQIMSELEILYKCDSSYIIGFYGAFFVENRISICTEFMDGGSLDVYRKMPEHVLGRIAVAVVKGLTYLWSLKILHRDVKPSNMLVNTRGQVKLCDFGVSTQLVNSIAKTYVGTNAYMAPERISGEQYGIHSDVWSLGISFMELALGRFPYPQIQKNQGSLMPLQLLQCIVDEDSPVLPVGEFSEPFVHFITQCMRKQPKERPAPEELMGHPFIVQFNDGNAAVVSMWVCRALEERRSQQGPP
Source text: as §1, §2

T1 sequence (P10721 26-976 V559D): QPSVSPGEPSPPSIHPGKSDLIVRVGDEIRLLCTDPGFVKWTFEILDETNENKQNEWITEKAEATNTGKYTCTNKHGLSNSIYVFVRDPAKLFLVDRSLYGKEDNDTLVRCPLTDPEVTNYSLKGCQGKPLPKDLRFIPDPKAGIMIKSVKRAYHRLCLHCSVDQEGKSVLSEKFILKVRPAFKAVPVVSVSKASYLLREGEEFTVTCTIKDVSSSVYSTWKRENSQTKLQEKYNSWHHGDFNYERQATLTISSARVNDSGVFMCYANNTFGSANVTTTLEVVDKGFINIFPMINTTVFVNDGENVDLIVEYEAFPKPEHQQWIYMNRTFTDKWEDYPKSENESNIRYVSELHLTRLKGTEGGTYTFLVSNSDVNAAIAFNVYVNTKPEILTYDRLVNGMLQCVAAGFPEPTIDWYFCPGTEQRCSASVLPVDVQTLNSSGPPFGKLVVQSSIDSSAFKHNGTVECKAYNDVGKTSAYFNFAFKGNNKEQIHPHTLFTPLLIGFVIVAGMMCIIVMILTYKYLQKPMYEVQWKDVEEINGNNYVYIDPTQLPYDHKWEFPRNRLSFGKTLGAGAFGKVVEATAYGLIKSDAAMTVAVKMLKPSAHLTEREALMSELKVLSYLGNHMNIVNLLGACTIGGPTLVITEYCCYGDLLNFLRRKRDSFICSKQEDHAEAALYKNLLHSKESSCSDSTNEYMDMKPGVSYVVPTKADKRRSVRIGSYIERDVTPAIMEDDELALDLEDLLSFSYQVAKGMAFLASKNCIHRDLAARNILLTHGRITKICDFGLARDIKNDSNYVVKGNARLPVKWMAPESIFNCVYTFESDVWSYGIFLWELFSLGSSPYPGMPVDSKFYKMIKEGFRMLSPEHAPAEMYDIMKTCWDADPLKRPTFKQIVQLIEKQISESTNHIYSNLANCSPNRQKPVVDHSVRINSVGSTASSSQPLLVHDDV

Row | Structure (SMILES) | remaining binding at 1 µM (KIT(V559D)) [%] | remaining binding at 1 µM (YANK1) [%] | remaining binding at 1 µM (CDK8) [%] | remaining binding at 1 µM (RIPK2) [%] | remaining binding at 1 µM (FLT3-autoinhibited) [%] | remaining binding at 1 µM (MAP3K3) [%] | remaining binding at 1 µM (TYK2(JH2domain-pseudok.)) [%] | remaining binding at 1 µM (MEK5) [%] | remaining binding at 0.1 µM (KIT(V559D); 100 nM) [%] | remaining binding at 0.1 µM (YANK1; 100 nM) [%] | remaining binding at 0.1 µM (CDK8; 100 nM) [%] | remaining binding at 0.1 µM (RIPK2; 100 nM) [%] | remaining binding at 0.1 µM (FLT3-autoinhibited; 100 nM) [%] | remaining binding at 0.1 µM (MAP3K3; 100 nM) [%] | remaining binding at 0.1 µM (TYK2(JH2domain-pseudok.); 100 nM) [%] | remaining binding at 0.1 µM (MEK5; 100 nM) [%]
1 | Cc1cc(NC(=O)[C@H](O)c2cccc(F)c2)ccc1-c1cn(C)c2ncnc(N)c12 [Compound 11, (R)-N-(4-(4-amino-7-methyl-7H-pyrrolo[2,3-d]pyrimidin-5-yl)-3-methylphenyl)-2-(3-fluorophenyl)-2-hydroxy acetamide] | 27 | 28 | 2.5 | 15 | 57 | 32 | 80 | 1.1 | – | – | – | – | – | – | – | –
2 | Cc1nc(N)c2c(-c3ccc(NC(=O)[C@H](O)c4cccc(C(F)(F)F)c4)cc3C)cn(C)c2n1 [Compound 26] | 0.45 | 67 | 57 | 43 | 65 | 92 | 30 | 68 | 96 | 96 | 100 | 91 | 100 | 100 | 98 | 100
3 | Cc1nc(N)c2c(-c3ccc(NC(=O)[C@H](O)c4cccc(F)c4)cc3C)cn(C)c2n1 [Compound 24] | 72 | 94 | 98 | 100 | 100 | 100 | 79 | 100 | – | – | – | – | – | – | – | –
